# The source made the active and inactive calls.
# How the values were obtained:
# Cytochrome P450 2C9 [1] = biological target: T1, Cytochrome P450 2C9 (Homo sapiens, UniProt P11712)
# Cytochrome P450 1A2 = biological target: T2, Cytochrome P450 1A2 (Homo sapiens, UniProt P05177);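 further: PubChem cytochrome P450 panel assay, CYP1A2 panel member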
# T2 sequence (P05177 whole entry): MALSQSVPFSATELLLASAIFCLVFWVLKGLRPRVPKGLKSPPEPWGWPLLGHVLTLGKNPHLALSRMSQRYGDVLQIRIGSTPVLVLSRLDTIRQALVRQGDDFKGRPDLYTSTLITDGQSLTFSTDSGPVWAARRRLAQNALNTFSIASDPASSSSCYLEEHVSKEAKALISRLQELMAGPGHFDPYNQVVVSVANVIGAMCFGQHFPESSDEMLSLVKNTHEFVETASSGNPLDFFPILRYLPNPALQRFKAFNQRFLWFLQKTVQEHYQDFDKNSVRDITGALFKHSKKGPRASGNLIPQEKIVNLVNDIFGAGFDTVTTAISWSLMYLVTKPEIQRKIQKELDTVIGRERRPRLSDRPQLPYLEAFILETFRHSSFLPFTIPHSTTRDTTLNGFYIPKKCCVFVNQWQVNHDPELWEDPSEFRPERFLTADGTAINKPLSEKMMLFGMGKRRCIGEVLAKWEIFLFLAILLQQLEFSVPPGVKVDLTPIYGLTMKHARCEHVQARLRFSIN
# [2] = NIH-3T3 fibroblast cytotoxicity, dose response, cytotoxicity control, cell-based, fluorescence, Alamar Blue, secondary assay (AID 2327); format: functional;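 further: NIH-3T3 mouse fibroblasts cultured with fluconazole at 8 µg/mL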
# [3] = fluconazole-exposed Candida albicans growth modulators – fluorescence, retest, confirmation (AID 2467); format: functional, cell-based
# Cytochrome P450 3A4 = Cytochrome P450 3A4 (Homo sapiens, UniProt P08684);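 further: CYP3A4 tested as one member of a cytochrome P450 panel screen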
# Cytochrome P450 2C9 [4] = biological target: T1, Cytochrome P450 2C9; remark: listed apart in the source
# Cytochrome P450 2C19 = Cytochrome P450 2C19 (Homo sapiens, UniProt P33261); test: Cytochrome panel assay with activity outcomes. Panel member name: p450-cyp2c19 Compounds with AC50 equal or less than 10 uM are considered active; format: functional; conditions: read-out: AC50
# [5] = biological target: T3, Sentrin-specific protease 8 (Homo sapiens, UniProt Q96LD8); format: functional;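 further: luminescence read-out of SENP8 inhibition, dose-response confirmation following an ultra-high-throughput screen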
# T3 sequence (Q96LD8 whole entry): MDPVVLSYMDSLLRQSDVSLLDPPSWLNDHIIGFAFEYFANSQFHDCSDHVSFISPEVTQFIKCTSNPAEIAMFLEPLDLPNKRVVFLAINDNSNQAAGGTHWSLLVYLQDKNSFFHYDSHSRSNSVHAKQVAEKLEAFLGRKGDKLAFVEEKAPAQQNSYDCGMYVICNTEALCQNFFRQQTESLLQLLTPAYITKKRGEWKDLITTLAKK
# [6] = biological target: T4, Sentrin-specific protease 6 (Homo sapiens, UniProt Q9GZR1); format: functional;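 further: Luminescence-based dose-response confirmatory assay of SENP6 inhibition, following up an ultra-high-throughput screen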
# T4 sequence (Q9GZR1 whole entry): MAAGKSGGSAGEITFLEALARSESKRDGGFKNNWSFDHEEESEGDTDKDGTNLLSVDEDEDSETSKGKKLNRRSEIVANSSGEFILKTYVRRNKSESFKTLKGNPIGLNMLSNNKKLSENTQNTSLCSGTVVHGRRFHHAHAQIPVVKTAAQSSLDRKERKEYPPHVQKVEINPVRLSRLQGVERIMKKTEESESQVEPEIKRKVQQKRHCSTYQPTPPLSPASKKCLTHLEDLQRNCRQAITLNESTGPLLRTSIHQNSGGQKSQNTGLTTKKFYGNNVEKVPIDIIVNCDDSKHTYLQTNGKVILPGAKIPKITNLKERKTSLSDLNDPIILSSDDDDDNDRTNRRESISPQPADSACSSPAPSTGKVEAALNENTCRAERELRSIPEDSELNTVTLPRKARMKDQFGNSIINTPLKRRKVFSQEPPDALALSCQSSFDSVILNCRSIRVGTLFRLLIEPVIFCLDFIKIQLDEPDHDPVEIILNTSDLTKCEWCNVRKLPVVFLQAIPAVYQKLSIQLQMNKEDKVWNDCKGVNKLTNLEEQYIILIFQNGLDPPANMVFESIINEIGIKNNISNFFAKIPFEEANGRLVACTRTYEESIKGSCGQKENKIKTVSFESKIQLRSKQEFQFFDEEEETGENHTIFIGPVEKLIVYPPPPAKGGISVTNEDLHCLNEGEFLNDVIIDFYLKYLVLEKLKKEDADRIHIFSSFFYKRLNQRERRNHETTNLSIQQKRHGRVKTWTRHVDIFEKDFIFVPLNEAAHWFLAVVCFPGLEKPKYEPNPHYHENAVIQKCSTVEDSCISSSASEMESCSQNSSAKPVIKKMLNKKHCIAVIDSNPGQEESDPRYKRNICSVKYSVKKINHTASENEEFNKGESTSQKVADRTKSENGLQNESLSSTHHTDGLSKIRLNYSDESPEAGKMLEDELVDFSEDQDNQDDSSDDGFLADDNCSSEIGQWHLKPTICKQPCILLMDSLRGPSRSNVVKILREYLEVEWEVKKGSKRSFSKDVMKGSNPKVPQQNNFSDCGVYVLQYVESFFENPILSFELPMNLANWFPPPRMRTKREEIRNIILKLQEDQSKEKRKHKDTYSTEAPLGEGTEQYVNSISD
# Caspase-3 = biological target: T5, Caspase-3 (Homo sapiens, UniProt P42574); format: functional;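 further: Dose-response selectivity test against caspase-3 for candidate inhibitors of sentrin-specific proteases (SENPs)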
# T5 sequence (P42574 whole entry): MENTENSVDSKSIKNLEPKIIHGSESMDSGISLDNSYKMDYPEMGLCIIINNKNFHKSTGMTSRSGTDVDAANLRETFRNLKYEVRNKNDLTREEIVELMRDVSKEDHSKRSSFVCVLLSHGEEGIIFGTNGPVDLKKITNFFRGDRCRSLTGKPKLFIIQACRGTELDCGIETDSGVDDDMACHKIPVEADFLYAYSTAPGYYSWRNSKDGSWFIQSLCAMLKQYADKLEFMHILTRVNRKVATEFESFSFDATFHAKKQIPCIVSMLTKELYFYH
# [7] = biological target: T6, Sentrin-specific protease 7 (Homo sapiens, UniProt Q9BQF6); format: functional;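 further: Luminescence-based dose-response confirmation of ultra-high-throughput screening hits, measuring inhibition of SENP7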
# T6 sequence (Q9BQF6 whole entry): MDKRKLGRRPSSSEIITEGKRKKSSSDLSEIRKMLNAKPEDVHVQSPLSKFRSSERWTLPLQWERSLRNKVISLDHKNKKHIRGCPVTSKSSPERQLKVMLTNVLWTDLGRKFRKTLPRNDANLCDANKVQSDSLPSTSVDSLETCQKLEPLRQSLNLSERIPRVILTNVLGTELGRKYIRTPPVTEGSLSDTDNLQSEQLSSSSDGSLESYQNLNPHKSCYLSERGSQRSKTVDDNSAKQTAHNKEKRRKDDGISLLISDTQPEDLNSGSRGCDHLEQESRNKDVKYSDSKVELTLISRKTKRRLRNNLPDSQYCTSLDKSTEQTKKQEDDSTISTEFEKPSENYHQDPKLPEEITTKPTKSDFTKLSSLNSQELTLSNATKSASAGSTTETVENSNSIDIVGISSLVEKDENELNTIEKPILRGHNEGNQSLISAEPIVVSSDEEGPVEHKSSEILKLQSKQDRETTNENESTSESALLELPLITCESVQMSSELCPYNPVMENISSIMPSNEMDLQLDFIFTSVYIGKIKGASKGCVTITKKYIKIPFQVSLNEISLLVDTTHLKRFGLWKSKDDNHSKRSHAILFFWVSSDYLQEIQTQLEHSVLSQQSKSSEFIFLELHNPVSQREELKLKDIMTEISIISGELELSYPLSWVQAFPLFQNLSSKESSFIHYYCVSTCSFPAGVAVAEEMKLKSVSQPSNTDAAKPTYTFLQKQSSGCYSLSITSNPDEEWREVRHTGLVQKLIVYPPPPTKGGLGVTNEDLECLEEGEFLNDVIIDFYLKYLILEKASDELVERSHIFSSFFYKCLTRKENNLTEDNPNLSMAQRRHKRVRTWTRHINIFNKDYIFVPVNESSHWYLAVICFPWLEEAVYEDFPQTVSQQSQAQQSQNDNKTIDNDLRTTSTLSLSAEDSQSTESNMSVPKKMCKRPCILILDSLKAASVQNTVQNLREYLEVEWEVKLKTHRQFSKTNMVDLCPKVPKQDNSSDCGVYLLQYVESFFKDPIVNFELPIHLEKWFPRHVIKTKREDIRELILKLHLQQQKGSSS
# [8] = loss of viability in HepG2 cells – cell-based, CellTiter-Glo, cherry-picked, cytotoxicity control for Shn3 inhibitor project, dose response (AID 624134); format: functional
# [9] = reduction of Shn3 3'UTR-driven luciferase in osteoblasts – cell-based, Clone20 osteoblasts, firefly luciferase, cherry-picked, dose response (AID 624132); format: functional;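 further: firefly luciferase luminescence from reporter carrying the Shn3 3'UTR in osteoblasts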
# HEK293 = test: EBV LMP1 TES2 canonical NF-kB signalling blockers – cell-based, HEK293, luciferase, cherry-pick, dose response (AID 588343); format: functional; conditions: Homo sapiens
# [10] = non-specific 3'UTR reporter inhibition in Clone20-Shn3RL – cell-based, Renilla luciferase, cherry-picked, counter-screen for Shn3 inhibitor project, dose response (AID 624133); format: functional
# [11] = biological target: Peroxisome proliferator-activated receptor gamma/Nuclear receptor coactivator 3 (Homo sapiens, UniProt P37231); test: (§1) TR-FRET dose response biochemical High Throughput Screening assay for agonists of the steroid receptor coactivator 3 (SRC-3) recruitment by the peroxisome proliferator-activated receptor gamma (PPAR gamma): non-selective agonists. [Related pubchem assays: 1301 (Confirmation screen.), 1048 (Primary screen.)]; format: functional
# [12] = biological target: Peroxisome proliferator-activated receptor gamma/Nuclear receptor coactivator 1 (Homo sapiens, UniProt P37231); test: as §1, with “1 (SRC-1)” for “3 (SRC-3)”, “assays (depositor defined):AID1300, AID1808, AID504735, AID631]” for “assays: 1301 (Confirmation screen.), 1048 (Primary screen.)]”; format: protein assay
# [13] = biological target: Peroxisome proliferator-activated receptor gamma/Nuclear receptor coactivator 2 (Homo sapiens, UniProt P37231); test: TR-FRET dose response biochemical High Throughput Screening assay for agonists of the steroid receptor coactivator 2 (SRC-2) recruitment by the peroxisome proliferator-activated receptor gamma (PPAR gamma): non-selective agonists. [Related pubchem assays: 1297, 1032 ]; format: functional
# Streptococcus = test: GAS UMAA2166 growth inhibition – luminescence, BacTiterGlo, counter-screen for streptokinase expression inhibitor project, dose response (AID 1915); format: functional, organism-based;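 further: potency for reduction of bacterial viability or growth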
# Streptokinase A = biological target: T7, Streptokinase A (Streptococcus pyogenes serotype M1, UniProt P10520); test: viability-normalized secreted streptokinase activity reduction – plasminogen activation absorbance, OD405, dose response (AID 1914); format: functional, Streptococcus pyogenes M1 GAS;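 further: secreted streptokinase activity via plasminogen activation per viability signal from cell pellet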
# T7 sequence (P10520 whole entry): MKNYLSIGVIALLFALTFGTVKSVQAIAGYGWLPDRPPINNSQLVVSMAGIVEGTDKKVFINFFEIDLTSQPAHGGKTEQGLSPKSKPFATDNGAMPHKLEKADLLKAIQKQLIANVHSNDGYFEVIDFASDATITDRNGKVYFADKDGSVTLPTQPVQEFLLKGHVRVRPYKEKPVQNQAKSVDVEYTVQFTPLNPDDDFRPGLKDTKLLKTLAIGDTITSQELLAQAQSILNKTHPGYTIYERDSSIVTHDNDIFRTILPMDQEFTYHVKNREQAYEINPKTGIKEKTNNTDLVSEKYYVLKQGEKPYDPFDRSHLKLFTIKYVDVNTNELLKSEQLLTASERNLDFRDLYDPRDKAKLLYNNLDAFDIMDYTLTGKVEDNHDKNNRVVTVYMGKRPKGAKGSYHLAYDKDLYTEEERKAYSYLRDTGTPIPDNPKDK
# Cytochrome P450 2D6 = Cytochrome P450 2D6 (Homo sapiens, UniProt P10635);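 further: CYP2D6 member of a cytochrome P450 panel assay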
# [14] = system: Streptococcus sp. 'group A'; test: Streptococcus pyogenes SK(-)GAS viability under kanamycin – luminescence, BacTiterGlo, confirmation, counter-screen for streptokinase expression inhibitor project, dose response (AID 1900); format: functional, organism-based
# T1 sequence (P11712 whole entry): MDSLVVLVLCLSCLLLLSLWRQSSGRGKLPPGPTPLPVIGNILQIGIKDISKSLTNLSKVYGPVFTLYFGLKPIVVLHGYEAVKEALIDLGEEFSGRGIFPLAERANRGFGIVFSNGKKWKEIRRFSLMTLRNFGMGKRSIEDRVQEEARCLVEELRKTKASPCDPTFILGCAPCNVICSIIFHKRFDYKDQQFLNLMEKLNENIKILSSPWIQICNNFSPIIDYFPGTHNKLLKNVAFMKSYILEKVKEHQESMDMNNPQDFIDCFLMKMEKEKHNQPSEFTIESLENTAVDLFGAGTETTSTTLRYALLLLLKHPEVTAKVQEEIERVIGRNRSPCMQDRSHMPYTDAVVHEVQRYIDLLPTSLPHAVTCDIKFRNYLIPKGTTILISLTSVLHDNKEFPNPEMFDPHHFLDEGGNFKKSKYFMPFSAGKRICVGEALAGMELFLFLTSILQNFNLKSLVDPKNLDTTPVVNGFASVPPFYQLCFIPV
# Cytochrome P450 3A4, sequence (P08684 whole entry): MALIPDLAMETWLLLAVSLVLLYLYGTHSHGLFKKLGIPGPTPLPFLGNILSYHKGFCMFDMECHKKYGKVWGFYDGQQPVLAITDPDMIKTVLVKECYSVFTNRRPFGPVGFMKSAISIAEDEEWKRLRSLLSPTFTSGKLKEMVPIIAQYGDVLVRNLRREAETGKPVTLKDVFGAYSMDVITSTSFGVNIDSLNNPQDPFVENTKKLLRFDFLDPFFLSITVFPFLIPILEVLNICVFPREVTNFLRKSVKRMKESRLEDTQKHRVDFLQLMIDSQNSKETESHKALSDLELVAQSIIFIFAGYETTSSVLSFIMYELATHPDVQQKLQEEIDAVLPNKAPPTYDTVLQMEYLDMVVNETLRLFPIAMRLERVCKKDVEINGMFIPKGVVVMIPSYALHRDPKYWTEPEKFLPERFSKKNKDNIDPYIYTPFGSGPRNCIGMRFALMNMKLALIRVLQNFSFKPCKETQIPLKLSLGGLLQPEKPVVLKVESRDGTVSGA
# Cytochrome P450 2C19, sequence (P33261 whole entry): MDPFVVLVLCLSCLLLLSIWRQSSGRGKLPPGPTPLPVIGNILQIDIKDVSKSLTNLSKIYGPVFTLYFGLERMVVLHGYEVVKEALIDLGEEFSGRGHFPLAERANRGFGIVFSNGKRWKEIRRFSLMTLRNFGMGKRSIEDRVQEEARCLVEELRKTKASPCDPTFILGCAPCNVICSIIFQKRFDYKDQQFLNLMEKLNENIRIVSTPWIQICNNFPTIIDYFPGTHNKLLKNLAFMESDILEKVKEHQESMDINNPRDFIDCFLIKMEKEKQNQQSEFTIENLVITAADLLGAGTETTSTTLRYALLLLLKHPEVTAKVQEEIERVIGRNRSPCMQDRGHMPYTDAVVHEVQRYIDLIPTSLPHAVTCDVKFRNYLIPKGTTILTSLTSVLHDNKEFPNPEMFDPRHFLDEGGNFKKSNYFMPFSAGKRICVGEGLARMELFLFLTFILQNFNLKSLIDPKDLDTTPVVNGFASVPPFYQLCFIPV
# Peroxisome proliferator-activated receptor gamma/Nuclear receptor coactivator 1, sequence (P37231 whole entry): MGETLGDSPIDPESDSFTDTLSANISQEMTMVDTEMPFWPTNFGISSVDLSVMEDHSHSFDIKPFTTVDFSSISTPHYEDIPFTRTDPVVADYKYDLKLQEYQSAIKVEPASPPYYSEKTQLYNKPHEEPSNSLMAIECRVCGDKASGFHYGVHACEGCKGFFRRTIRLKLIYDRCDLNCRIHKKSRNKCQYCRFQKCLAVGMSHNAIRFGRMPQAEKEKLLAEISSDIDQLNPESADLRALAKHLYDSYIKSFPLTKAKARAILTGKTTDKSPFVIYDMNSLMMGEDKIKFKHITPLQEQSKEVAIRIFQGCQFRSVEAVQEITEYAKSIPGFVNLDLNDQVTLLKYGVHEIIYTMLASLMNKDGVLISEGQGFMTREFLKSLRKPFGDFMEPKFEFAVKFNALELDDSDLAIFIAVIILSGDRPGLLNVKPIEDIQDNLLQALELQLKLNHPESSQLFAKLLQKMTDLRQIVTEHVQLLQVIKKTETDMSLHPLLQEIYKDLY
# Peroxisome proliferator-activated receptor gamma/Nuclear receptor coactivator 1, sequence (Q15788 whole entry, further chain): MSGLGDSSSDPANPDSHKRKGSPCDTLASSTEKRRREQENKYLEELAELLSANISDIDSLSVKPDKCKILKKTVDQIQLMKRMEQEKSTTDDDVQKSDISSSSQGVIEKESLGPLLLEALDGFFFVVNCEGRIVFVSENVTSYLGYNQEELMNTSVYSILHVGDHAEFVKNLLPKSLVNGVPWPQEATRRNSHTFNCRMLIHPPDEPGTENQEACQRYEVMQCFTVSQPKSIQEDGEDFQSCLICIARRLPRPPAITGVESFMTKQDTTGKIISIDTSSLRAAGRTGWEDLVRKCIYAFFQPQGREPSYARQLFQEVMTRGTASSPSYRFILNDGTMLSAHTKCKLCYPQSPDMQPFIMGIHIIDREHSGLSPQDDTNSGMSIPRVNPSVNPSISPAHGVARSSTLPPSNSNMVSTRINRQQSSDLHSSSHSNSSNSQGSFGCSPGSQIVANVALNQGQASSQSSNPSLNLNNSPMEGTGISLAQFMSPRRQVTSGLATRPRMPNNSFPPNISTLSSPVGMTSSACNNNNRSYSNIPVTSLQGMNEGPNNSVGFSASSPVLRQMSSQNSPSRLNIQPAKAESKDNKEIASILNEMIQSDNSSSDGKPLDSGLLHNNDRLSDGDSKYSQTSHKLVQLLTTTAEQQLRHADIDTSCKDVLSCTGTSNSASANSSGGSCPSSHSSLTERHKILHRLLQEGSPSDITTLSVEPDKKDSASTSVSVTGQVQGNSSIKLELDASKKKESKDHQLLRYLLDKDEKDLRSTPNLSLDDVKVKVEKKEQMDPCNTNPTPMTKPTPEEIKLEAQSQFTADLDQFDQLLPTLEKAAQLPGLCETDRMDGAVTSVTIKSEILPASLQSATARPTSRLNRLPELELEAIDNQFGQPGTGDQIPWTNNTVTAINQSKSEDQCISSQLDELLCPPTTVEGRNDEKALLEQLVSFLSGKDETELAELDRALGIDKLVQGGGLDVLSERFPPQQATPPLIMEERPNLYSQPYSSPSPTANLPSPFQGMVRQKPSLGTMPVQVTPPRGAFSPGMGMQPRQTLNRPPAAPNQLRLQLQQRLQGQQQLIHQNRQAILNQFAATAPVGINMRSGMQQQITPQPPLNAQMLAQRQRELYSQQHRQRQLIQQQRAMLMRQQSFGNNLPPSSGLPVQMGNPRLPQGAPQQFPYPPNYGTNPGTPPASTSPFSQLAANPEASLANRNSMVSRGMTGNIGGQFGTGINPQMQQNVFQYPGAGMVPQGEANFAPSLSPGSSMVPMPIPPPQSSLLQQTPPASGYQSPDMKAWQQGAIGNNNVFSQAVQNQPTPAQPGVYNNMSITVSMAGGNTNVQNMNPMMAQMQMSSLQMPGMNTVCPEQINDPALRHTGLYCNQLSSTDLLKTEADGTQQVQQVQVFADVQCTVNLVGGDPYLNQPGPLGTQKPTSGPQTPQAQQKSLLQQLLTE
# Cytochrome P450 2D6, sequence (P10635 whole entry): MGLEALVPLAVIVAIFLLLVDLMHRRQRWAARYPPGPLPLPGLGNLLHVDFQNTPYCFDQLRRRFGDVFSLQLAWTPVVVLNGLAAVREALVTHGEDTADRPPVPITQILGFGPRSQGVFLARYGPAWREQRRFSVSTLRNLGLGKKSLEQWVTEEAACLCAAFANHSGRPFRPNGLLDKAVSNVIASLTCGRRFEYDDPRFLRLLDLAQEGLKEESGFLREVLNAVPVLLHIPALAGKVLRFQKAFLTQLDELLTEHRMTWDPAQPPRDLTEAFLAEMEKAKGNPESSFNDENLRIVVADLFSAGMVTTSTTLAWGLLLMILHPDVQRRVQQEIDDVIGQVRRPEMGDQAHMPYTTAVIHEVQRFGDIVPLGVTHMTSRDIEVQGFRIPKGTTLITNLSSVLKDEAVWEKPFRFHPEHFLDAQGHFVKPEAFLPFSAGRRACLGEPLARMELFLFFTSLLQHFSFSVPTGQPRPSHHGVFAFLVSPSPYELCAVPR
structure (smiles),measurement,setting,value
Cn1c(=O)n(CC#N)c2ccccc21,AC50,Cytochrome P450 2C9 [1],inconclusive
same,AC50,Cytochrome P450 1A2,12.6 µM (inconclusive)
same,EC50,[2],> 160 µM (inconclusive)
same,EC50,[3],4.1 µM (active)
CCN(CCCNC(=O)CC(C(=O)N1CCc2ccccc21)n1ccnc1)c1ccccc1 (centres undefined),AC50,Cytochrome P450 2C9 [1],inconclusive
COc1ccc(N2CCN(CCNC(=O)C3CCN(S(=O)(=O)c4cccs4)CC3)CC2)cc1,AC50,Cytochrome P450 3A4,inconclusive
same,AC50,Cytochrome P450 2C9 [4],20 µM (inconclusive)
same,AC50,Cytochrome P450 2C19,28.2 µM (inconclusive)
O=C(O)c1ccc(-c2ccc(OS(=O)(=O)c3ccccc3F)cc2)cc1,IC50,[5],56.4 µM (active)
same,IC50,[6],35 µM (active)
same,IC50,Caspase-3,> 100 µM (inactive)
same,IC50,[7],6.6 µM (active)
O=c1c(-c2ccccc2)nc2cnc(Oc3ccccc3)nc2n1C1CC1,AC50,Cytochrome P450 3A4,inconclusive
same,AC50,Cytochrome P450 2C19,25.1 µM (inconclusive)
CCCCC(=O)NC(c1ccc(OC)c(OC)c1)c1ccc2cccnc2c1O (centres undefined),AC50,[8],60.1 µM (active)
same,AC50,[9],1.36 µM (active)
same,AC50,HEK293,7.93 µM (active)
same,AC50,[10],1.4 µM (active)
CN(CCCNC(=O)CSc1cc(=O)n(C)c2cc(Cl)ccc12)Cc1ccccc1,EC50,[11],> 79.4 µM (not active)
same,EC50,[12],> 79.4 µM (inactive)
same,EC50,[13],> 79.4 µM (not active)
Cc1nn(-c2ccccc2)c(C)c1/C=N/NC(=O)c1cc(-c2ccc(Cl)s2)[nH]n1,AC50,Cytochrome P450 3A4,inconclusive
same,EC50,Streptococcus,9.32 µM (active)
same,EC50,Streptokinase A,> 150 µM (not active)
same,AC50,Cytochrome P450 2D6,25.1 µM (inconclusive)
same,EC50,[14],10.8 µM (active)
O=C(NCc1ccc(Cl)cc1)c1ccc(Cl)cc1[N+](=O)[O-],AC50,Cytochrome P450 2C9 [1],inconclusive
same,AC50,Cytochrome P450 1A2,2.82 µM (inconclusive)
O=C(c1cccc(F)c1)N1CCC2(CC1)CCN(C(c1ccccc1)c1ccccc1)CC2,AC50,Cytochrome P450 3A4,inconclusive
same,AC50,Cytochrome P450 2C9 [4],39.8 µM (inconclusive)
same,AC50,Cytochrome P450 1A2,10 µM (inconclusive)
Cc1c(C(=O)O)cccc1-c1ccc(/C=C2/NC(=O)N(c3ccccc3)C2=O)o1,IC50,[5],45 µM (active)
same,IC50,[6],28.6 µM (active)
same,IC50,Caspase-3,> 100 µM (inactive)
same,IC50,[7],21.2 µM (active)
CCCCN(CC)C(=O)CSc1cc(=O)n(C)c2ccccc12,EC50,[11],> 79.4 µM (not active)
same,EC50,[12],> 79.4 µM (inactive)
same,EC50,[13],> 79.4 µM (not active)
N=C(NOC(=O)c1cccc(Br)c1)c1ccccn1,AC50,HEK293,21.8 µM (active)

# — ChEMBL document CHEMBL1201862, “PubChem BioAssay data set” (2004)
